Data reported in ChEMBL document CHEMBL5463729, “Data for DCP probe BAY 1753011” (2023).

Assays:
Vasopressin V1a receptor = Vasopressin V1a receptor (Homo sapiens, UniProt P37288); assay: Assay with bioluminescence detection (AVPR1). (The vasopressin receptor cells react to stimulation of the recombinantly expressed V1a receptors by intracellular release of calcium ions, which can be quantified by the resulting photoprotein luminescence).; assay type: functional, cell-based, CHO-K1
[1] = molecular target: Tyrosine-protein kinase ABL1 (Homo sapiens) (UniProt P00519); assay: Inhibition of Abl(h) at 10.0 µM in the Eurofins Kinase panel; conditions: Compound concentration 10.0 uM
[2] = molecular target: 5'-AMP-activated protein kinase catalytic subunit alpha-2 (Homo sapiens) (UniProt P54646); assay: Inhibition of AMPKalpha2(h) at 10.0 µM in the Eurofins Kinase panel; conditions: Compound concentration 10.0 uM
[3] = molecular target: Ephrin type-B receptor 4 (Homo sapiens) (UniProt P54760); assay: Inhibition of EphB4(h) at 10.0 µM in the Eurofins Kinase panel; conditions: Compound concentration 10.0 uM
[4] = molecular target: Glycogen synthase kinase-3 alpha (Homo sapiens) (UniProt P49840); assay: Inhibition of GSK3alpha(h) at 10.0 µM in the Eurofins Kinase panel; conditions: Compound concentration 10.0 uM
[5] = molecular target: Serine/threonine-protein kinase Nek1 (Homo sapiens) (UniProt Q96PY6); assay: Inhibition of NEK1(h) at 10.0 µM in the Eurofins Kinase panel; conditions: Compound concentration 10.0 uM
[6] = molecular target: STE20/SPS1-related proline-alanine-rich protein kinase (Homo sapiens) (UniProt Q9UEW8); assay: Inhibition of STK39(h) at 10.0 µM in the Eurofins Kinase panel; conditions: Compound concentration 10.0 uM
[7] = molecular target: Tyrosine-protein kinase TXK (Homo sapiens) (UniProt P42681); assay: Inhibition of Txk(h) at 10.0 µM in the Eurofins Kinase panel; conditions: Compound concentration 10.0 uM
[8] = molecular target: B1 bradykinin receptor (Homo sapiens) (UniProt P46663); assay: Inhibition of Bradykinin B1 at 10 µM in the Eurofins-Panlabs radioligand binding assay (Eurofins_assay_212510); conditions: Compound concentration 10.0 uM
[9] = molecular target: Epidermal growth factor receptor (Homo sapiens) (UniProt P00533); assay: Inhibition of Epidermal Growth Factor (EGF) at 10 µM in the Eurofins-Panlabs radioligand binding assay (Eurofins_assay_225510); conditions: Compound concentration 10.0 uM
[10] = molecular target: Gamma-aminobutyric acid type B receptor subunit 1 (Homo sapiens) (UniProt Q9UBS5); assay: Inhibition of GABAB1A at compound concentration of 10.0 uM in the Eurofins-Panlabs radioligand binding assay (Eurofins_assay_228610); set-up: ligand concentration 4 nM; conditions: Compound concentration 10.0 uM
[11] = molecular target: Neuropeptide Y receptor type 1 (Homo sapiens) (UniProt P25929); assay: Inhibition of Neuropeptide Y Y1 at 10 µM in the Eurofins-Panlabs radioligand binding assay (Eurofins_assay_257010); conditions: Compound concentration 10.0 uM
Mus musculus = organism: Mus musculus; assay: Inhibition of Phorbol Ester at 10 µM in the Eurofins-Panlabs radioligand binding assay (Eurofins_assay_264500); set-up: ligand concentration 3 nM; conditions: Compound concentration 10.0 uM
[12] = molecular target: Platelet-activating factor receptor (Homo sapiens) (UniProt P25105); assay: Inhibition of Platelet Activating Factor (PAF) at 10 µM in the Eurofins-Panlabs radioligand binding assay (Eurofins_assay_265010); conditions: Compound concentration 10.0 uM
[13] = molecular target: ATP-sensitive inward rectifier potassium channel 11 (Cricetulus griseus) (UniProt A0A3L7HHE1); assay: Inhibition of Potassium Channel [KATP] at 10 µM in the Eurofins-Panlabs radioligand binding assay (Eurofins_assay_265600); conditions: Cricetinae; Compound concentration 10.0 uM
hERG (KCNH2) = hERG (KCNH2) (Homo sapiens, UniProt Q12809); assay: Inhibition of Potassium Channel hERG at 10 µM in the Eurofins-Panlabs radioligand binding assay (Eurofins_assay_265900); set-up: ligand concentration 1.5 nM, non-specific ligand with concentration Astemizole, incubation time 60 min, incubation temperature 25 °C; conditions: HEK-293 cells expressing human recombinant hERG, probe [3H] Astemizole, compound concentration 10 uM
[14] = molecular target: voltage-gated sodium channel, site 2 (Rattus norvegicus, UniProt F1LQQ7+O08562+O88420+O88457+P04774+P04775+P08104+P15389+P15390+Q62968); assay: Inhibition of Sodium Channel, Site 2 at 10 µM in the Eurofins-Panlabs radioligand binding assay (Eurofins_assay_279510); assay type: protein assay; set-up: ligand concentration 5 nM, non-specific ligand with concentration 100 µM Veratridine, incubation time 60 min, incubation temperature 37 °C; conditions: male, Wistar, rat whole brain (except cerebellum) membranes, probe [3H] Batrachotoxinin, compound concentration 10 uM
[15] = molecular target: Neutrophil elastase (Homo sapiens) (UniProt P08246); assay: Inhibition of Peptidase, ELA2 (Neutrophil Elastase 2) at 10 µM in the Eurofins-Panlabs enzyme assay (Eurofins_assay_166010); conditions: Compound concentration 10.0 uM
[16] = molecular target: Matrix metalloproteinase-9 (Homo sapiens) (UniProt P14780); assay: Inhibition of Peptidase, Matrix Metalloproteinase-9 (MMP-9) at 10 µM in the Eurofins-Panlabs enzyme assay (Eurofins_assay_114910); set-up: substrate with concentration; conditions: Compound concentration 10.0 uM
[17] = molecular target: Mitogen-activated protein kinase 3 (Homo sapiens) (UniProt P27361); assay: Inhibition of Protein Serine/Threonine Kinase, MAPK3 (ERK1) at 10 µM in the Eurofins-Panlabs enzyme assay (Eurofins_assay_171000); conditions: Compound concentration 10.0 uM
[18] = molecular target: Tyrosine-protein kinase Lck (Homo sapiens) (UniProt P06239); assay: Inhibition of Protein Tyrosine Kinase, LCK at 10 µM in the Eurofins-Panlabs enzyme assay (Eurofins_assay_176020); conditions: Compound concentration 10.0 uM
[19] = Inhibition of Atrial Natriuretic Factor (ANF) at 10 µM in the Eurofins-Panlabs radioligand binding assay (Eurofins_assay_211000); conditions: Cavia porcellus; Compound concentration 10 uM; Assay protocol publication PMID: 2408776; Detection method Radioligand Binding; Incubation temperature 4 °C; Incubation time 60 min; Ligand Bmax 0.013 pM/ mg protein; Ligand Kd 0.14 nM; Ligand [125I] ANF (rat); Ligand concentration 0.016 nM; Ligand specific binding 78 %; Non-specific ligand with concentration 0.1 µM ANF (rat); Reference compound ANF (rat); Source of …
[20] = molecular target: Melanocortin receptor 5 (Homo sapiens) (UniProt P33032); assay: Inhibition of Melanocortin MC5 at 10 µM in the Eurofins-Panlabs radioligand binding assay (Eurofins_assay_251400); set-up: ligand concentration 0.035 nM; conditions: Compound concentration 10.0 uM
Oxytocin receptor = molecular target: T1, Oxytocin receptor (Homo sapiens, UniProt P30559); assay: Inhibition of Oxytocin at 1 µM in the Eurofins-Panlabs radioligand binding assay (Eurofins_assay_260900); set-up: ligand concentration 0.8 nM, non-specific ligand with concentration 1 µM Oxytocin, incubation time 2 h, incubation temperature 25°C
T1 sequence (P30559 whole entry): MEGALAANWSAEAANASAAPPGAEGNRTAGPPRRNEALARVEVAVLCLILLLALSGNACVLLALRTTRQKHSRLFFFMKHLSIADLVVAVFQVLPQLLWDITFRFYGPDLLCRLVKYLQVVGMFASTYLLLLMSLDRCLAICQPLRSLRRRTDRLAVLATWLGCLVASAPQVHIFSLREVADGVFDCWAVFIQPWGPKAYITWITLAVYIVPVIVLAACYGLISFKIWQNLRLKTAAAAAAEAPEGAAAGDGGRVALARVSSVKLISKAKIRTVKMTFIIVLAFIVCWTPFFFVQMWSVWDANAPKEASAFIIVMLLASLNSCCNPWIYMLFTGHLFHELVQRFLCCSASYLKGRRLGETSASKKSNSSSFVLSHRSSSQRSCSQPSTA

[21] = molecular target: AP2-associated protein kinase 1 (Homo sapiens) (UniProt Q2M2I8); assay: Inhibition of AAK1(h) at 10.0 µM in the Eurofins Kinase panel; conditions: Compound concentration 10.0 uM
[22] = molecular target: Serine/threonine-protein kinase Nek4 (Homo sapiens) (UniProt P51957); assay: Inhibition of NEK4(h) at 10.0 µM in the Eurofins Kinase panel; conditions: Compound concentration 10.0 uM

Epidermal growth factor receptor (Homo sapiens), sequence (P00533 whole entry): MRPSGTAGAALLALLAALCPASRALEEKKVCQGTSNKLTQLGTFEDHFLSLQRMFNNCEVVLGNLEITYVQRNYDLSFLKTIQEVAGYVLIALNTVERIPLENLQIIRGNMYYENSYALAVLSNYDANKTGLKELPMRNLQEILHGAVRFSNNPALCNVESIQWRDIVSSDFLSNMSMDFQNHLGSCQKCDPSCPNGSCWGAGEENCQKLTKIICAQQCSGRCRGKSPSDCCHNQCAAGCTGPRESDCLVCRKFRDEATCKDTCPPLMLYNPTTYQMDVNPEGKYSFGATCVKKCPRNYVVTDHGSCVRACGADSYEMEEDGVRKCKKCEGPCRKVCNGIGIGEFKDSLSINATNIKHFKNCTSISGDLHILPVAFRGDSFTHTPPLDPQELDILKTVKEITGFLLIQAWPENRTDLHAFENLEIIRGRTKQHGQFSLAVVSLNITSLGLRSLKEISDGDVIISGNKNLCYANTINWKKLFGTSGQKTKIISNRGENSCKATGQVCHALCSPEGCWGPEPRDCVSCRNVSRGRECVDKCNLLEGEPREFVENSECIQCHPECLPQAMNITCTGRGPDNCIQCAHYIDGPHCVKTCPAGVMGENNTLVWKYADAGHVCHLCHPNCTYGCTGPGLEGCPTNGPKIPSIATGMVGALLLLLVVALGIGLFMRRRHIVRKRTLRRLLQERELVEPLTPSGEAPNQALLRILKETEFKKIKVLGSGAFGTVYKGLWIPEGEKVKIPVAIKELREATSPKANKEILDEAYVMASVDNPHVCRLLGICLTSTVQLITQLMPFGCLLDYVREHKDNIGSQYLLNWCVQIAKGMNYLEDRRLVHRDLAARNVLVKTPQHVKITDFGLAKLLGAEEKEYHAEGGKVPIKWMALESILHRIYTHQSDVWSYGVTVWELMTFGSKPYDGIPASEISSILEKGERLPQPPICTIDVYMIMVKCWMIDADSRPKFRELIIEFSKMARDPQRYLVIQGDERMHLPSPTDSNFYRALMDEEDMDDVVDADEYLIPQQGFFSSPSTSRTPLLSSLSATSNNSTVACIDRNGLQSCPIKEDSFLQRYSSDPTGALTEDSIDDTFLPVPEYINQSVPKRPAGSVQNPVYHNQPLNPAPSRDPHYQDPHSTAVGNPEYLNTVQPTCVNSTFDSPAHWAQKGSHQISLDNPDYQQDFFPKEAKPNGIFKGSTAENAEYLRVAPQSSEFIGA
Tyrosine-protein kinase Lck (Homo sapiens), sequence (P06239 2-509 limits assumed): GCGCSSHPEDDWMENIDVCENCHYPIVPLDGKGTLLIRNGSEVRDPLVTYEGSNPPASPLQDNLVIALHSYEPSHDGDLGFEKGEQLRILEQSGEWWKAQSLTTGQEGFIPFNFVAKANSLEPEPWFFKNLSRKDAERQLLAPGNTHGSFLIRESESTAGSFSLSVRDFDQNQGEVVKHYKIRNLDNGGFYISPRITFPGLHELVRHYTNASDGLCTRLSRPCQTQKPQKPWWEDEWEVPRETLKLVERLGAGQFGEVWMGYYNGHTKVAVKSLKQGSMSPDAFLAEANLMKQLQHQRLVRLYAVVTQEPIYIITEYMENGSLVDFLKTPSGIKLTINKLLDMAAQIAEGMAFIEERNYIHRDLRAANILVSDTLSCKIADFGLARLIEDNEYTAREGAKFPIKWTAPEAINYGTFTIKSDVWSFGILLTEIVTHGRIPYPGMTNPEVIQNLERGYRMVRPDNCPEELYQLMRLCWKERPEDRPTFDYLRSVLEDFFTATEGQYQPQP
hERG (KCNH2), sequence (Q12809 whole entry): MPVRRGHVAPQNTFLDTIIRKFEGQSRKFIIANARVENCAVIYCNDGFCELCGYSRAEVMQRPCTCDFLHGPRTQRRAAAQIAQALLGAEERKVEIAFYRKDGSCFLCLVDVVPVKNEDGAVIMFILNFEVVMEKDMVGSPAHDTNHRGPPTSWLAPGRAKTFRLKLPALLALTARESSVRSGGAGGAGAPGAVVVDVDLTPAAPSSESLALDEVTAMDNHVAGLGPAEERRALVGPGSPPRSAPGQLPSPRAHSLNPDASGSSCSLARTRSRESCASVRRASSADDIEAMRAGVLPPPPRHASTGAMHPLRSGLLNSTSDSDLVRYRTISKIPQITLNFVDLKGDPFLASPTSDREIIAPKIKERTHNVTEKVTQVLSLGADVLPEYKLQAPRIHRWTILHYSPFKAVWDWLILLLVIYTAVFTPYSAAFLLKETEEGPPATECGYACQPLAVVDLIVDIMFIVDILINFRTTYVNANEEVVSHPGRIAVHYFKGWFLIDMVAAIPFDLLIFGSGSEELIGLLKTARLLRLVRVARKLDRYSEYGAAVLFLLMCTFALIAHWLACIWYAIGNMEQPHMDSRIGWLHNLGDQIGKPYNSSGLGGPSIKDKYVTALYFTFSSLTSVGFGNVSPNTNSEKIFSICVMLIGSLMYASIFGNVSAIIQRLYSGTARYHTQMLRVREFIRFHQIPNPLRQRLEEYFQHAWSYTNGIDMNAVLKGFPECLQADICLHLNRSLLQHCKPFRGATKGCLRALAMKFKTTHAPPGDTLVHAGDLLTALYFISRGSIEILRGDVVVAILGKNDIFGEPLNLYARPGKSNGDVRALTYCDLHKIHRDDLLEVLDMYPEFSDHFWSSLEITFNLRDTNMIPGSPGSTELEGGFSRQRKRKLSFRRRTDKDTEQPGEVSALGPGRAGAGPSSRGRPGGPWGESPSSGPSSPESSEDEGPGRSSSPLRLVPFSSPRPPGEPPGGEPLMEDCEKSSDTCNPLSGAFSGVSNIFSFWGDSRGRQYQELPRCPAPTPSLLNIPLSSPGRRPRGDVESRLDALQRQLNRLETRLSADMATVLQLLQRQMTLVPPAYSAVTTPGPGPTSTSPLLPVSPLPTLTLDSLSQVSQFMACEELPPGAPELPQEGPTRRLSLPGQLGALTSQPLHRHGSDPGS
Vasopressin V1a receptor, sequence (P37288 whole entry): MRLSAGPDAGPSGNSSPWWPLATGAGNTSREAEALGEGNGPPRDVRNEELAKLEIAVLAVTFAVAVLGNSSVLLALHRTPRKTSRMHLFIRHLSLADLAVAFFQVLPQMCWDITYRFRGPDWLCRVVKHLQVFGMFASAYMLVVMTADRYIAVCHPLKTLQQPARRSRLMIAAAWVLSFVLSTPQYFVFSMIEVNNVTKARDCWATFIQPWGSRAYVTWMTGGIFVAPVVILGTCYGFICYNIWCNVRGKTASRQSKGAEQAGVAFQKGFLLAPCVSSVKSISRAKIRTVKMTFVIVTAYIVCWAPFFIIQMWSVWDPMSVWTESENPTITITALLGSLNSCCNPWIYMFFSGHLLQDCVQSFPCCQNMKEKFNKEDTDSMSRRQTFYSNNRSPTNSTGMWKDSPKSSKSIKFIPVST
AP2-associated protein kinase 1 (Homo sapiens), sequence (Q2M2I8 whole entry, looked up): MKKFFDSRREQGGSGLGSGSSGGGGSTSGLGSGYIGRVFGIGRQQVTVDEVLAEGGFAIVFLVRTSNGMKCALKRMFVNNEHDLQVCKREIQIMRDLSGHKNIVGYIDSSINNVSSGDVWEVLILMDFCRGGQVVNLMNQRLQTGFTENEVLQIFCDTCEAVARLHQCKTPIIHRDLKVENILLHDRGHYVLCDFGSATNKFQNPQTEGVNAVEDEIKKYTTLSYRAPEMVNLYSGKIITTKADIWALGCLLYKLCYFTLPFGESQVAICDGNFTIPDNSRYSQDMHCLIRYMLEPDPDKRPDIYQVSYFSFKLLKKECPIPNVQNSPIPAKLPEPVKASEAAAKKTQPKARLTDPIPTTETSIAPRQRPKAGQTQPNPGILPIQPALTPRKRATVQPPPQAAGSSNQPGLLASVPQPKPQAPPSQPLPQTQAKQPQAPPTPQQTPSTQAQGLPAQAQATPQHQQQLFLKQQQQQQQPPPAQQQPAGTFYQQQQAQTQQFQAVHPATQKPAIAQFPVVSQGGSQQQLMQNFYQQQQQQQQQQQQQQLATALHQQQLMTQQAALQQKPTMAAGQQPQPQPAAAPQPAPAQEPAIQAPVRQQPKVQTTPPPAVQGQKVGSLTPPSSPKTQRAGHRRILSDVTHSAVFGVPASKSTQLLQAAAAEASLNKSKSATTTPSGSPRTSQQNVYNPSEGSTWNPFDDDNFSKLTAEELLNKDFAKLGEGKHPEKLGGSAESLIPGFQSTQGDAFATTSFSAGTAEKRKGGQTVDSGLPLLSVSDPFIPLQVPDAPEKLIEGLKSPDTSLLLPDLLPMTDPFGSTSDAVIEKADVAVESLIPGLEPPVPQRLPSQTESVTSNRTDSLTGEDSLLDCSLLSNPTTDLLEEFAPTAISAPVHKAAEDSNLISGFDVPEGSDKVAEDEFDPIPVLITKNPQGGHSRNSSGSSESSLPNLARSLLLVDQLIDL
B1 bradykinin receptor (Homo sapiens), sequence (P46663 whole entry): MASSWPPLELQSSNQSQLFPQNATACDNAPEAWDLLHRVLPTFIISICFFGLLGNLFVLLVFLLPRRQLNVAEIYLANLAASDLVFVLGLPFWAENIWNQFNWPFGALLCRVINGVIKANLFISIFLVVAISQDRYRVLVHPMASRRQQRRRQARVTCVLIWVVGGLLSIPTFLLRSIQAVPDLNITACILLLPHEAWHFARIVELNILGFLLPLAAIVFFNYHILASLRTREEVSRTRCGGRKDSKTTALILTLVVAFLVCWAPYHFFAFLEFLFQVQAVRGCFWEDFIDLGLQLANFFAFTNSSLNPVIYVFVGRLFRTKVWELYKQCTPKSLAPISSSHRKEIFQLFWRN
Neuropeptide Y receptor type 1 (Homo sapiens), sequence (P25929 whole entry): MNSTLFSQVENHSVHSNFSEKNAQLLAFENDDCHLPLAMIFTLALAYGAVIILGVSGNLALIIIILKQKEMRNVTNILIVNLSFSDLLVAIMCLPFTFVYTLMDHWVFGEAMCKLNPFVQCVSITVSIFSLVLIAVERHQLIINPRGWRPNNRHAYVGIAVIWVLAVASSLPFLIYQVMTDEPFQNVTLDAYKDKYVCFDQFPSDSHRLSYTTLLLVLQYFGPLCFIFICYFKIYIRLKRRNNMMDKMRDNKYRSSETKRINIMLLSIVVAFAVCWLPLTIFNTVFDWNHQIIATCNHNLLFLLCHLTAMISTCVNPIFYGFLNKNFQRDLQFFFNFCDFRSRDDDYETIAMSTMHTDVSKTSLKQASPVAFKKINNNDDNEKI

O=c1n(Cc2cncn2-c2cccc(Cl)c2)nc(-c2ccc(Cl)cc2)n1C[C@H](O)C(F)(F)F
IC50 (Vasopressin V1a receptor): > 10000 nM (not active)
inhibition [1]: -3.62%
inhibition [2]: -2.83%
inhibition [3]: -2.17%
inhibition [4]: -1.7%
inhibition [5]: 5.54%
inhibition [6]: -4.72%
inhibition [7]: -5.05%

C[C@H](O)c1nc(Cn2nc(-c3ccc(Cl)cc3)n(C[C@H](O)C(F)(F)F)c2=O)nn1-c1cccc(Cl)c1 [PECAVAPTAN]
inhibition [8]: 0%
inhibition [9]: 14%
inhibition [10]: -4%
inhibition [11]: 11%
inhibition (Mus musculus): 3%
inhibition [12]: 17%
inhibition [13]: 18%
inhibition at 60 min, 10 µM (hERG (KCNH2)): -3% (not active)
inhibition at 60 min, 10 µM [14]: 42% (not active)
inhibition [15]: 1%
inhibition [16]: -2%
inhibition [17]: -7%
inhibition [18]: -9%
inhibition at 10 µM [19]: 1% (not active)
inhibition [20]: 13%
IC50 (Oxytocin receptor): 15.5 nM
Ki (Oxytocin receptor): 5.06 nM
inhibition [21]: -9.01%
inhibition [22]: 13.1%
